Measured values reported in ChEMBL document CHEMBL1159099, “Structure and in vitro antitumor activity evaluation of brominated diterpenes from the red alga Sphaerococcus coronopifolius” (Bioorg Med Chem, 2010).
Activity calls are given as the source filed them. The calls are words filed in the database; no cut-off is given here.

What was measured:
[1] = Growth inhibition of human apoptosis-resistant U373 cells after 72 hrs by MTT assay; type: functional, cell-based, U-373MG ATCC; conditions: U373 MG
[2] = test system: SK-MEL-28; assay: Growth inhibition of human apoptosis-resistant SK-MEL-28 cells after 72 hrs by MTT assay; type: functional, cell-based; conditions: SK-MEL-28, 72 h
[3] = Growth inhibition of human apoptosis-resistant OE21 cells after 72 hrs by MTT assay; type: functional, cell-based; conditions: OE21, 72 h
[4] = test system: LoVo; assay: Growth inhibition of human apoptosis-sensitive LoVo cells after 72 hrs by MTT assay; type: functional, cell-based
[5] = test system: PC-3; assay: Growth inhibition of human apoptosis-sensitive PC3 cells after 72 hrs by MTT assay; type: functional, cell-based; conditions: PC-3, 72 h
[6] = test system: A549; assay: Growth inhibition of human apoptosis-resistant A549 cells after 72 hrs by MTT assay; type: functional, cell-based; conditions: A549, 72 h
[7] = test system: U-373MG ATCC; assay: Cytostatic effect against human apoptosis-resistant U373 cells assessed as increase in mitosis duration at 16 uM after 72 hrs by computer-assisted phase contrast microscopy; type: functional, cell-based
[8] = test system: U-373MG ATCC; assay: Cytostatic effect against human apoptosis-resistant U373 cells at 7 uM assessed as induction of vacuolization after 72 hrs by computer-assisted phase contrast microscopy; type: functional, cell-based
[9] = test system: U-373MG ATCC; assay: Cytostatic effect against human apoptosis-resistant U373 cells assessed as inhibition of cell entry into mitosis at 3 uM after 72 hrs by computer-assisted phase contrast microscopy; type: functional, cell-based

CC(C)[C@@H]1CC=C[C@H]2[C@@H]3[C@](C)(O)[C@H](O)C[C@H](Br)[C@@]3(C)CC[C@]12CBr
IC50 [1]: 25 µM
IC50 [2]: 29 µM
IC50 [3]: 25 µM
IC50 [4]: 26 µM
IC50 [5]: 26 µM
IC50 [6]: 28 µM

CC(C)[C@@H]1CC=C[C@H]2[C@@H]3[C@](C)(O)[C@@H](O)C[C@H](Br)[C@@]3(C)CC[C@]12CBr
IC50 [1]: 16 µM
IC50 [2]: 22 µM
IC50 [3]: 19 µM
IC50 [4]: 9 µM
IC50 [5]: 12 µM
inhibition [7]: Active
IC50 [6]: 19 µM

CC(C)[C@@H]1C=C[C@H](OO)[C@H]2[C@@H]3[C@](C)(O)[C@H](O)C[C@H](Br)[C@@]3(C)CC[C@@]21CBr
IC50 [1]: 32 µM
IC50 [2]: 31 µM
IC50 [3]: 25 µM
IC50 [4]: 22 µM
IC50 [5]: 30 µM
IC50 [6]: 40 µM

CC(C)[C@@H]1CC=C[C@H]2[C@H]3[C@](C)(CC[C@]12CBr)[C@@H](Br)CC[C@@]3(C)O [BROMOSPHAEROL]
IC50 [1]: 30 µM
IC50 [2]: 34 µM
IC50 [3]: 28 µM
IC50 [4]: 23 µM
IC50 [5]: 30 µM
IC50 [6]: 35 µM

C=C1CC[C@@]2(C)[C@H](/C=C/CC[C@H]1C(C)C)[C@](C)(O)[C@H](O)C[C@@H]2Br
IC50 [1]: 60 µM
IC50 [2]: 62 µM
IC50 [3]: 33 µM
IC50 [4]: 24 µM
IC50 [5]: 48 µM
IC50 [6]: 64 µM

CC(=O)[C@H]1[C@@H]2[C@H]3CC[C@@H](C(C)C)[C@]3(C)CC[C@]2(C)[C@@H](Br)C[C@@H]1O [CORONONE]
IC50 [1]: 31 µM
IC50 [2]: 38 µM
IC50 [3]: 30 µM
IC50 [4]: 28 µM
IC50 [5]: 30 µM
IC50 [6]: 42 µM

CC(C)[C@@H]1CC[C@H](O)[C@H]2[C@H]3[C@](C)(CC[C@@]21CBr)[C@@H](Br)CC[C@@]3(C)O
IC50 [1]: 25 µM
IC50 [2]: 26 µM
IC50 [3]: 20 µM
IC50 [4]: 23 µM
IC50 [5]: 25 µM
IC50 [6]: 28.6 µM

CC(C)[C@@H]1C=C[C@H](O)[C@H]2[C@H]3[C@](C)(CC[C@@]21CBr)[C@@H](Br)CC[C@@]3(C)O [BROMOSPHAERODIOL]
IC50 [1]: 22 µM
IC50 [2]: 31 µM
IC50 [3]: 15 µM
IC50 [4]: 20 µM
IC50 [5]: 26 µM
IC50 [6]: 24 µM

C=C1CC[C@H]2[C@@H](C(C)C)CC[C@@H]2/C=C/[C@](C)(O)CC[C@H]1OC(C)=O [SPHAEROLLANE I]
IC50 [1]: 20 µM
IC50 [2]: 57 µM
IC50 [3]: 34 µM
IC50 [4]: 23 µM
IC50 [5]: 34 µM
IC50 [6]: 44 µM

CC(C)[C@@H]1CC[C@@H]2[C@@H](O)[C@H]3[C@](C)(CC[C@]21C)[C@@H](Br)CC[C@@]3(C)O [NEODOLASTANE]
IC50 [1]: 85 µM
IC50 [2]: 96 µM
IC50 [3]: 60 µM
IC50 [4]: 64 µM
IC50 [5]: 74 µM
IC50 [6]: 97 µM

CC(C)[C@@H]1CC=C[C@H]2[C@H]3[C@](C)(CC[C@]12CBr)[C@@H](O)CC(=O)[C@@]3(C)O
IC50 [1]: 7.2 µM
IC50 [2]: 21 µM
IC50 [3]: 8.4 µM
IC50 [4]: 5.3 µM
IC50 [5]: 8.1 µM
IC50 [6]: 18 µM
inhibition [8]: Active

CC(C)[C@@H]1C[C@@H]2C[C@@]13CC[C@]1(C)[C@@H](Br)CC[C@@](C)(O)[C@H]1[C@@H]3[C@H]2O [BROMOTETRASPHAEROL]
IC50 [1]: 34 µM
IC50 [2]: 43 µM
IC50 [3]: 33 µM
IC50 [4]: 26 µM
IC50 [5]: 30 µM
IC50 [6]: 38 µM

CC(C)[C@@H]1C=C[C@H](OO)[C@H]2[C@@H]3[C@](C)(O)[C@@H](O)C[C@H](Br)[C@@]3(C)CC[C@@]21CBr
IC50 [1]: 22 µM
IC50 [2]: 28 µM
IC50 [3]: 27 µM
IC50 [4]: 28 µM
IC50 [5]: 28 µM
IC50 [6]: 26 µM

CC(C)[C@@H]1CC=C[C@H]2[C@H]3[C@@](C)(C=CC(=O)[C@@]3(C)O)CC[C@]12CBr [SPHAEROCOCCENOL A]
IC50 [1]: 3.2 µM
IC50 [2]: 5.2 µM
IC50 [3]: 3 µM
IC50 [4]: 2.8 µM
IC50 [5]: 3.7 µM
inhibition [9]: Active
IC50 [6]: 3.7 µM

CC(C)[C@]1(O)C[C@H]2C[C@H]3[C@H]4[C@](C)(CC[C@@]31C2)[C@@H](Br)CC[C@@]4(C)O
IC50 [1]: 75 µM
IC50 [2]: > 100 µM
IC50 [3]: 64 µM
IC50 [4]: 56 µM
IC50 [5]: 43 µM
IC50 [6]: 63 µM

C=C1CC[C@@H]2[C@H]([C@@H]3[C@H](C)CC[C@H]13)C2(C)C
IC50 [1]: 71 µM
IC50 [2]: > 100 µM
IC50 [3]: 83 µM
IC50 [4]: 63 µM
IC50 [5]: 35 µM
IC50 [6]: 79 µM
